Structures are written as SMILES. pIC50: −log10 of the molar value.

Assay [1] has as its system cell-surface Mac-1 adhesion to immobilized fibrinogen (HL-60 cells). As to the kind of experiment: Mac-1/Fibrinogen cell-based screening assay. Also on record: species or system human. The conditions noted are these: Homo sapiens, HL-60, HL-60 cells; read-out: Mac-1/Fgn Cell based Assay IC50. The gist of the method: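 Wells coated with fibrinogen and blocked with PVP. Labeled HL-60 cells (2×10^6 cells/mL in RPMI/0.05% BSA/0.2 mM MnCl2) preincubated with DMSO-diluted compounds for 10 min at 37° C, then left to adhere 30 min at 37° C/5% CO2. Unbound cells washed off with TBS.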

The target in assay [2] is T1, LFA-1 binding to immobilized ICAM-1 (Homo sapiens, UniProt P05107+P20701).
T1 construct: made in house; host or cells: transfected 293 cells (LFA-1)
Put plainly: LFA-1/ICAM-1 protein-protein assay (solid-phase ELISA). The conditions noted are these: read-out: LFA-1/ICAM-1 Protein-Protein Assay IC50. The essentials:
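Human 5dICAM-Ig (ICAM-1 extracellular domain–IgG Fc) coated on plates; membrane-bound LFA-1 from transfected 293 cells (280 ng/mL) added with compound in Mn2+-containing HEPES buffer pH 7.2, 2 h at 37° C. Bound LFA-1 detected via anti-β2 antibody and HRP/TMB at 450 nm; IC50s determined.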

T1 sequence (P20701 26-1170): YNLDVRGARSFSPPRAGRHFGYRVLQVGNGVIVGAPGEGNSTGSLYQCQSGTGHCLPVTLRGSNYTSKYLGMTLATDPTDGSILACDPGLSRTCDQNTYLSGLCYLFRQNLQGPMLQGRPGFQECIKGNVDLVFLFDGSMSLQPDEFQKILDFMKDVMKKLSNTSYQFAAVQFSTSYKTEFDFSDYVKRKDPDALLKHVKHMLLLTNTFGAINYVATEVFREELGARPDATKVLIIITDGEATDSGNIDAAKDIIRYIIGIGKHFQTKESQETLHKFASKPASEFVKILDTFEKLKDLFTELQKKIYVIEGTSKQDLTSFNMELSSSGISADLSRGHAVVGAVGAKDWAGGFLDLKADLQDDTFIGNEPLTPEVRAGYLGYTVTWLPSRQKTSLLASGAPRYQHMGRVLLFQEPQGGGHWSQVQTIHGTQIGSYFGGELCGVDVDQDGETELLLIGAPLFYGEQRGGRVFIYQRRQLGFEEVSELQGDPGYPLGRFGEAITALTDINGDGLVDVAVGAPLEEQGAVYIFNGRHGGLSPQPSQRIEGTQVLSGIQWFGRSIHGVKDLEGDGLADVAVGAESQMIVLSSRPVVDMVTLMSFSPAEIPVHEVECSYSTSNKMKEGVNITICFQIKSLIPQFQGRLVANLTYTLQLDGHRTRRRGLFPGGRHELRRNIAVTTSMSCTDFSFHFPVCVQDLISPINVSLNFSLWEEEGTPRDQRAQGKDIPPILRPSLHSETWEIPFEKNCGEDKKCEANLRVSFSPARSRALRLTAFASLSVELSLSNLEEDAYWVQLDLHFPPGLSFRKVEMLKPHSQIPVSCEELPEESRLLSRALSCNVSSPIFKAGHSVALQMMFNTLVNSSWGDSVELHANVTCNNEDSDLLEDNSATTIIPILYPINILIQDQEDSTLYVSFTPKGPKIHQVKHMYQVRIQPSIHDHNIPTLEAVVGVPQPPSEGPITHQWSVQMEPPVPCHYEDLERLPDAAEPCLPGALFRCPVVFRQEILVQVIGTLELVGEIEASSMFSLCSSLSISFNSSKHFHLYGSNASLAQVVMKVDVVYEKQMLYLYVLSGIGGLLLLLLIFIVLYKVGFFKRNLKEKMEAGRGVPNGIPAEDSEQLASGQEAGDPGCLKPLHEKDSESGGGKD
T1 sequence (P05107 23-769): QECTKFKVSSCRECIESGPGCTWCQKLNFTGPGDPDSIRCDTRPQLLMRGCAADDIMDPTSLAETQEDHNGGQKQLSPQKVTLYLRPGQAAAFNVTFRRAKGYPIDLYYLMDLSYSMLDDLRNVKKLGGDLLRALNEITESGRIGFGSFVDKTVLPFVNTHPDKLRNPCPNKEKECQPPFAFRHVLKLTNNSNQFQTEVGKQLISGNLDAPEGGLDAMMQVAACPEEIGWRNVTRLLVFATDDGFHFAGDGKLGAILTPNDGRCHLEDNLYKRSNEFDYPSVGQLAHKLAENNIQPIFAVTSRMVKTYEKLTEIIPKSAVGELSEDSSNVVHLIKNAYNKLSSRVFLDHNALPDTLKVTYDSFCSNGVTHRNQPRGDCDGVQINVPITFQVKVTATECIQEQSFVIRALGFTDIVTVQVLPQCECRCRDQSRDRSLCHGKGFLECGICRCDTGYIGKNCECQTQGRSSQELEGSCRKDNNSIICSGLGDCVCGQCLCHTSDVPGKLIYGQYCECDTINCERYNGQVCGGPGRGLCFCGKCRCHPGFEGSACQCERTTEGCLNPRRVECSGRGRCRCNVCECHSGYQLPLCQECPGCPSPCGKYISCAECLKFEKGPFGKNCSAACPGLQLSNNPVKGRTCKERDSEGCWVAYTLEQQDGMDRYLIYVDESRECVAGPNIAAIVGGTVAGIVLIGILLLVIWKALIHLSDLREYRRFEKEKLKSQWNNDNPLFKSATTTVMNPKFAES

As to `O=C(CC1CCCC1)NC[C@H](NC(=O)c1ccc(C(=O)NCc2cccc(O)c2)cc1Cl)C(=O)O` [Example 77], the values for the pIC50 in assay [1] and in assay [2] were 6.51 and 8.68, respectively.

Source of the values: patent US20040006236A1, “Diaminopropionic acid derivatives” (priority 1999, published 2004).
